Laboratory results as given in patent publication US5770713A, “Phosphorothioate triester oligonucleotides and method of preparation” (Centre National de la Recherche Scientifique, priority 1993, dated 1998).

Experiments:
[1] = Stability of oligonucleotides in culture medium (RPMI + 10% serum), HPLC; type: in vitro ADME, fetal calf; conditions: 37° C.
Procedure: (§1) Distilled water is purified on a MilliQ system (Waters-Millipore), Acetonitrile is of HPLC-far UV quality (Fisons), Ammonium acetate is of "analytical" quality (MERCK), The culture media are composed of 90% of RPMI 1640 and 10% of heat-inactivated fetal calf serum (GIBCO), The cellular extracts were kindly supplied by a person -M. Aubertin (University of Strasbourg I). They are prepared in the following way: CEM cells in the exponential growth phase are separated from the culture medium by centrifugation (10^4 g, 4 min, […]). The residue (approximately100 μl, 5×10^7 cells) is dissolved in 2 ml of buffer (Tris-HCl 140 mM, pH=7.4) and sonicated. The lysate is centrifuged (10^5 g, 1 h, 4°) to eliminate membranes, organelles and chromatin. Two types of eluents were utilized for the HPLC:
(§2) The general conditions are the same as those used for the study of stability of the phosphorothioate triester dimers, as far as the method, the equipment and the chemical products are concerned. […]
30 μl of parent solution of oligonucleotide (being approximately 1.5 A260 units) are removed, which are added to 1470 μl of culture medium which has previously been filtered on a sterile Millex GV filter (Millipore 0.22 μm). […] The samples are immediately analyzed by HPLC (volume injected 80 μl) or preserved at -25° C. with a view to subsequent analysis.

[2] = Stability of oligonucleotides in cellular extract (CEM cells), HPLC; type: in vitro ADME; conditions: 37° C.
Procedure: as §1, §2
10 μl of oligonucleotide parent solution are added to 990 μl of cellular extract which have previously been filtered on a sterile Millex GV filter (Millipore, 0.22 μm). After mixing, fractions (100 μl) are distributed in sterile Eppendorf tubes, placed in an oven at 37° C., sampled at different times and immediately analyzed by HPLC.

[3] = Stability of dimers in cellular extract (CEM cells), HPLC; type: in vitro ADME; conditions: 37° C., C0 =5×10^-5 M; for % PS^- (molar fraction of phosphorothioate diester dinucleoside formed, relative to initial quantity of phosphorothioate triester dinucleoside): after complete decomposition of the starting triester; for half-life at 50 µM: human, cem cell extract, read-out: t1/2 (time at the end of which half of the starting product has decomposed)
Procedure: as §1
(§3) A 10^-2 M solution of the compound to be studied is prepared in DMSO.
(§4) This solution is diluted with water to give a parent solution of concentration 5×10^-4 M.
b) Study of stability in cellular extract: 100 μl of parent solution of the compound to be studied are added to 900 μl of cellular extract which has previously been filtered on a Millex GV sterile filter (Millipore, 0.22 μm). After mixing, fractions (100 μl) are distributed in Eppendorf tubes. These tubes are placed in an oven at 37° C. and removed as a function of the kinetic development. The samples are immediately analyzed by HPLC.
(§5) tl/2 =time at the end of which half of the starting product has decomposed
(§6) % PO^- , % PS^- =molar fractions of phosphodiester dinucleoside and of phosphorothioate diester dinucleoside, expressed in relation to the initial quantity of phosphorothioate triester dinucleoside.
(§7) The percentage of PS^- corresponds to the quantity of phosphorothioate diester dinucleoside formed after complete decomposition of the starting phosphorothioate triester dinucleoside (considering that the phosphorothioate diester dinucleoside is stable under the condition used and accumulates).

[4] = Stability of dimers in culture medium (RPMI + 10% serum), HPLC; type: in vitro ADME, fetal calf; conditions: 37° C., C0 =5×10^-5 M; for % PS^- (molar fraction of phosphorothioate diester dinucleoside formed, relative to initial quantity of phosphorothioate triester dinucleoside): after complete decomposition of the starting triester; for % PO^- (molar fraction of phosphodiester dinucleoside, relative to initial quantity of phosphorothioate triester dinucleoside): calculated as 100-% PS^- formed; for half-life at 50 µM: read-out: t1/2 (time at the end of which half of the starting product has decomposed) (converted)
Procedure: as §1, §3, §4
a) Study of stability in culture medium:
100 μl of parent solution of the compound to be studied are added to 900 μl of culture medium which has previously been filtered on a Millex GV sterile filter (Millipore, 0.22 μm). After mixing, fractions (100 μl) are distributed in sterile Eppendorf tubes. These tubes are placed in an oven at 37° C. and removed as a function of the kinetic development. The samples are immediately analyzed by HPLC (volume injected: 80 μl) or preserved at -25° C. with a view to subsequent analysis.
as §5, §6, §7

Row | Compound | t1/2 of disappearance of the starting oligonucleotide [1] [min] | t1/2 of disappearance of the starting oligonucleotide [2] [min] | t1/2 of formation of the totally deprotected oligonucleotide [2] [min] | % PS^- (molar fraction of phosphorothioate diester dinucleoside formed, relative to initial quantity of phosphorothioate triester dinucleoside) [3] [%] | half-life at 50 µM [3] [min] | % PS^- (molar fraction of phosphorothioate diester dinucleoside formed, relative to initial quantity of phosphorothioate triester dinucleoside) [4] [%] | % PO^- (molar fraction of phosphodiester dinucleoside, relative to initial quantity of phosphorothioate triester dinucleoside) [4] [%] | half-life at 50 µM [4] [min]
1 | 6b: completely alkylated phosphorothioate dodecamer 6b; from d(CP(S) Ap(s) Cp(s) Cp(s) Cp(s) Ap(s) Ap(s) Tp(s) Tp(s) Cp(s) Tp(s) G) SEQ. ID. NO: 1 (CACCCAATTCTG; DNA, backbone not given here; all phosphorothioate linkages alkylated) [Compound 6b, completely alkylated phosphorothioate dodecamer 6b; ID; NO: 1] | 55 | < 2 | 25 | – | – | – | – | –
2 | Cc1cn([C@H]2C[C@H](OP(=O)(OC[C@H]3O[C@@H](n4cc(C)c(=O)[nH]c4=O)C[C@@H]3O)SCOC(=O)C(C)(C)C)[C@@H](CO)O2)c(=O)[nH]c1=O (stereo partly drawn) [Compound 4a, O-(Thymidin-3'-yl) O-(thymidin-5'-yl) S-(pivaloyloxymethyl) phosphorothioate] | – | – | – | 100 | 40 | 20 | 80 | 360
3 | CC(=O)SCCSP(=O)(OC[C@H]1O[C@@H](n2cc(C)c(=O)[nH]c2=O)C[C@@H]1O)O[C@H]1C[C@H](n2cc(C)c(=O)[nH]c2=O)O[C@@H]1CO (stereo partly drawn) [Compound 4b, O-(Thymidin-3'-yl) O-(thymidin-5'-yl) S-(acetylthioethyl) phosphorothioate] | – | – | – | 100 | 10 | 50 | 50 | 420
4 | CC(=O)SCSP(=O)(OC[C@H]1O[C@@H](n2cc(C)c(=O)[nH]c2=O)C[C@@H]1O)O[C@H]1C[C@H](n2cc(C)c(=O)[nH]c2=O)O[C@@H]1CO (stereo partly drawn) [Compound 4c, O-(Thymidin-3'-yl) O-(thymidin-5'-yl) S-(acetylthiomethyl) phosphorothioate] | – | – | – | 100 | 5 to 10 | 80 | 20 | 60
